Experimental data reported in the supplement of paper PMC10307832.

Experiments:
Experiment in all cases: relative viability (nuclei count vs DMSO), 5 days (fraction); higher = more cells survive
AT-7519 + Pictilisib = compound: O=C(NC1CCNCC1)c1n[nH]cc1NC(=O)c1c(Cl)cccc1Cl [AT-7519] + CS(=O)(=O)N1CCN(Cc2cc3nc(-c4cccc5[nH]ncc45)nc(N4CCOCC4)c3s2)CC1 [Pictilisib] (partner 1 µM)
Method in brief: (§1)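 Each reported value is a median over duplicate plates. It expresses relative viability: treated-well nuclei count divided by vehicle-well nuclei count. Lung cancer cell lines in 1536-well plates were dosed by pin tool a day after seeding, alone with one drug or with a fixed anchor-drug dose plus five library-drug doses (not always all listed) in √10 steps, and nuclei were counted after 5 days.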

AT-7519 + Olaparib = compound: O=C(NC1CCNCC1)c1n[nH]cc1NC(=O)c1c(Cl)cccc1Cl [AT-7519] + O=C(c1cc(Cc2n[nH]c(=O)c3ccccc23)ccc1F)N1CCN(C(=O)C2CC2)CC1 [Olaparib] (partner 8 µM)
Method in brief: as §1

[1] = compound: C1=CC2=C(C=C(C(=C2N=C1)O)N=NC3=CC4=C(C=C3)C=C(C=C4)S(=O)(=O)O)S(=O)(=O)O + CC(=O)Nc1cccc(-n2c(=O)n(C3CC3)c(=O)c3c(Nc4ccc(I)cc4F)n(C)c(=O)c(C)c32)c1 [Trametinib] (partner 0.02 µM)
Method in brief: as §1

[2] = compound: C1=CC2=C(C=C(C(=C2N=C1)O)N=NC3=CC4=C(C=C3)C=C(C=C4)S(=O)(=O)O)S(=O)(=O)O + CCNC(=O)c1noc(-c2cc(C(C)C)c(O)cc2O)c1-c1ccc(CN2CCOCC2)cc1 [Luminespib] (partner 0.01 µM)
Method in brief: as §1

HCC-827 was tested, and the relative viability (AT-7519 + Pictilisib; first compound 0.01 µM) was 1.15, the relative viability (AT-7519 + Pictilisib; first compound 0.03162 µM) was 0.875 and the relative viability (AT-7519 + Pictilisib; first compound 0.3162 µM) was 0.819. For the same cell line, the relative viability (AT-7519 + Pictilisib; first compound 1 µM) was 0.9, the relative viability (AT-7519 + Olaparib; first compound 0.01 µM) was 0.635 and the relative viability (AT-7519 + Olaparib; first compound 0.03162 µM) was 0.815. For the same cell line, the relative viability (AT-7519 + Olaparib; first compound 0.3162 µM) was 0.659, the relative viability (AT-7519 + Olaparib; first compound 1 µM) was 0.54 and the relative viability ([1]; first compound 0.08 µM) was 0.505. The relative viability ([1]; first compound 0.253 µM) was 0.521, the relative viability ([1]; first compound 0.8 µM) was 0.524 and the relative viability ([1]; first compound 2.53 µM) was 0.524. It also gave a relative viability ([1]; first compound 8 µM) of 0.578, a relative viability ([2]; first compound 0.08 µM) of 0.859 and a relative viability ([2]; first compound 0.253 µM) of 0.576. The relative viability ([2]; first compound 0.8 µM) was 0.592, the relative viability ([2]; first compound 2.53 µM) was 0.693 and the relative viability ([2]; first compound 8 µM) was 0.683.

For HOP-62, the relative viability (AT-7519 + Pictilisib; first compound 0.01 µM) was 0.817, the relative viability (AT-7519 + Pictilisib; first compound 0.03162 µM) was 0.742 and the relative viability (AT-7519 + Pictilisib; first compound 0.3162 µM) was 0.486. For the same cell line, the relative viability (AT-7519 + Pictilisib; first compound 1 µM) was 0.293, the relative viability (AT-7519 + Olaparib; first compound 0.01 µM) was 0.558 and the relative viability (AT-7519 + Olaparib; first compound 0.03162 µM) was 0.248. For the same cell line, the relative viability (AT-7519 + Olaparib; first compound 0.3162 µM) was 0.189, the relative viability (AT-7519 + Olaparib; first compound 1 µM) was 0.373 and the relative viability ([1]; first compound 0.08 µM) was 0.428. For the same cell line, the relative viability ([1]; first compound 0.253 µM) was 0.392, the relative viability ([1]; first compound 0.8 µM) was 0.452 and the relative viability ([1]; first compound 2.53 µM) was 0.37. For the same cell line, the relative viability ([1]; first compound 8 µM) was 0.359, the relative viability ([2]; first compound 0.08 µM) was 0.878 and the relative viability ([2]; first compound 0.253 µM) was 0.773. For the same cell line, the relative viability ([2]; first compound 0.8 µM) was 0.916, the relative viability ([2]; first compound 2.53 µM) was 0.919 and the relative viability ([2]; first compound 8 µM) was 0.898.

Cell Line IA-LM has a relative viability (AT-7519 + Pictilisib; first compound 0.01 µM) of 0.31, a relative viability (AT-7519 + Pictilisib; first compound 0.03162 µM) of 0.328 and a relative viability (AT-7519 + Pictilisib; first compound 0.3162 µM) of 0.191. It also gave a relative viability (AT-7519 + Pictilisib; first compound 1 µM) of 0.0278, a relative viability (AT-7519 + Olaparib; first compound 0.01 µM) of 0.866 and a relative viability (AT-7519 + Olaparib; first compound 0.03162 µM) of 0.892. The relative viability (AT-7519 + Olaparib; first compound 0.3162 µM) was 0.834 and the relative viability (AT-7519 + Olaparib; first compound 1 µM) was 0.631.

Work on LC-2-ad yielded a relative viability (AT-7519 + Pictilisib; first compound 0.01 µM) of 0.653, a relative viability (AT-7519 + Pictilisib; first compound 0.03162 µM) of 0.366 and a relative viability (AT-7519 + Pictilisib; first compound 0.3162 µM) of 0.386. For the same cell line, the relative viability (AT-7519 + Pictilisib; first compound 1 µM) was 0.158, the relative viability (AT-7519 + Olaparib; first compound 0.01 µM) was 0.75 and the relative viability (AT-7519 + Olaparib; first compound 0.03162 µM) was 0.726. For the same cell line, the relative viability (AT-7519 + Olaparib; first compound 0.3162 µM) was 0.736, the relative viability (AT-7519 + Olaparib; first compound 1 µM) was 0.622 and the relative viability ([1]; first compound 0.08 µM) was 0.932. The relative viability ([1]; first compound 0.253 µM) was 0.851, the relative viability ([1]; first compound 0.8 µM) was 0.941 and the relative viability ([1]; first compound 2.53 µM) was 0.892. The relative viability ([1]; first compound 8 µM) was 0.98, the relative viability ([2]; first compound 0.08 µM) was 0.989 and the relative viability ([2]; first compound 0.253 µM) was 1.04. It also gave a relative viability ([2]; first compound 0.8 µM) of 1.05, a relative viability ([2]; first compound 2.53 µM) of 1.1 and a relative viability ([2]; first compound 8 µM) of 0.834.

In the case of LCLC-97TM1, the relative viability (AT-7519 + Pictilisib; first compound 0.01 µM) is reported as 0.196, the relative viability (AT-7519 + Pictilisib; first compound 0.03162 µM) is reported as 0.176 and the relative viability (AT-7519 + Pictilisib; first compound 0.3162 µM) is reported as 0.211. The relative viability (AT-7519 + Pictilisib; first compound 1 µM) was 0.152, the relative viability (AT-7519 + Olaparib; first compound 0.01 µM) was 0.284 and the relative viability (AT-7519 + Olaparib; first compound 0.03162 µM) was 0.264. The relative viability (AT-7519 + Olaparib; first compound 0.3162 µM) was 0.355, the relative viability (AT-7519 + Olaparib; first compound 1 µM) was 0.294 and the relative viability ([1]; first compound 0.08 µM) was 0.197. It also gave a relative viability ([1]; first compound 0.253 µM) of 0.183, a relative viability ([1]; first compound 0.8 µM) of 0.191 and a relative viability ([1]; first compound 2.53 µM) of 0.182. It also gave a relative viability ([1]; first compound 8 µM) of 0.15, a relative viability ([2]; first compound 0.08 µM) of 0.963 and a relative viability ([2]; first compound 0.253 µM) of 0.678. It also gave a relative viability ([2]; first compound 0.8 µM) of 0.714, a relative viability ([2]; first compound 2.53 µM) of 0.805 and a relative viability ([2]; first compound 8 µM) of 0.801.

Work on LCLC-103H yielded a relative viability (AT-7519 + Pictilisib; first compound 0.01 µM) of 0.624, a relative viability (AT-7519 + Pictilisib; first compound 0.03162 µM) of 0.517 and a relative viability (AT-7519 + Pictilisib; first compound 0.3162 µM) of 0.488. It also gave a relative viability (AT-7519 + Pictilisib; first compound 1 µM) of 0.557, a relative viability (AT-7519 + Olaparib; first compound 0.01 µM) of 0.763 and a relative viability (AT-7519 + Olaparib; first compound 0.03162 µM) of 0.805. The relative viability (AT-7519 + Olaparib; first compound 0.3162 µM) was 0.834, the relative viability (AT-7519 + Olaparib; first compound 1 µM) was 0.833 and the relative viability ([1]; first compound 0.08 µM) was 0.661. It also gave a relative viability ([1]; first compound 0.253 µM) of 0.706, a relative viability ([1]; first compound 0.8 µM) of 0.658 and a relative viability ([1]; first compound 2.53 µM) of 0.667. It also gave a relative viability ([1]; first compound 8 µM) of 0.675, a relative viability ([2]; first compound 0.08 µM) of 1.09 and a relative viability ([2]; first compound 0.253 µM) of 0.902. The relative viability ([2]; first compound 0.8 µM) was 1.09, the relative viability ([2]; first compound 2.53 µM) was 0.96 and the relative viability ([2]; first compound 8 µM) was 0.957.

Work on LK-2 yielded a relative viability (AT-7519 + Pictilisib; first compound 0.01 µM) of 0.785, a relative viability (AT-7519 + Pictilisib; first compound 0.03162 µM) of 0.503 and a relative viability (AT-7519 + Pictilisib; first compound 0.3162 µM) of 0.497. For the same cell line, the relative viability (AT-7519 + Pictilisib; first compound 1 µM) was 0.265, the relative viability (AT-7519 + Olaparib; first compound 0.01 µM) was 0.815 and the relative viability (AT-7519 + Olaparib; first compound 0.03162 µM) was 0.74. For the same cell line, the relative viability (AT-7519 + Olaparib; first compound 0.3162 µM) was 0.706, the relative viability (AT-7519 + Olaparib; first compound 1 µM) was 0.593 and the relative viability ([1]; first compound 0.08 µM) was 0.795. It also gave a relative viability ([1]; first compound 0.253 µM) of 0.602, a relative viability ([1]; first compound 0.8 µM) of 0.607 and a relative viability ([1]; first compound 2.53 µM) of 0.776. The relative viability ([1]; first compound 8 µM) was 0.552, the relative viability ([2]; first compound 0.08 µM) was 0.156 and the relative viability ([2]; first compound 0.253 µM) was 0.292. For the same cell line, the relative viability ([2]; first compound 0.8 µM) was 0.181, the relative viability ([2]; first compound 2.53 µM) was 0.231 and the relative viability ([2]; first compound 8 µM) was 0.179.

Work on LOU-NH91 yielded a relative viability (AT-7519 + Pictilisib; first compound 0.01 µM) of 0.551, a relative viability (AT-7519 + Pictilisib; first compound 0.03162 µM) of 0.536 and a relative viability (AT-7519 + Pictilisib; first compound 0.3162 µM) of 0.516. The relative viability (AT-7519 + Pictilisib; first compound 1 µM) was 0.479, the relative viability (AT-7519 + Olaparib; first compound 0.01 µM) was 0.911 and the relative viability (AT-7519 + Olaparib; first compound 0.03162 µM) was 0.899. The relative viability (AT-7519 + Olaparib; first compound 0.3162 µM) was 0.931, the relative viability (AT-7519 + Olaparib; first compound 1 µM) was 0.785 and the relative viability ([1]; first compound 0.08 µM) was 0.841. It also gave a relative viability ([1]; first compound 0.253 µM) of 0.77, a relative viability ([1]; first compound 0.8 µM) of 0.759 and a relative viability ([1]; first compound 2.53 µM) of 0.733. For the same cell line, the relative viability ([1]; first compound 8 µM) was 0.797, the relative viability ([2]; first compound 0.08 µM) was 0.418 and the relative viability ([2]; first compound 0.253 µM) was 0.354. The relative viability ([2]; first compound 0.8 µM) was 0.327, the relative viability ([2]; first compound 2.53 µM) was 0.373 and the relative viability ([2]; first compound 8 µM) was 0.341.

Work on LU99A yielded a relative viability (AT-7519 + Pictilisib; first compound 0.01 µM) of 0.365, a relative viability (AT-7519 + Pictilisib; first compound 0.03162 µM) of 0.307 and a relative viability (AT-7519 + Pictilisib; first compound 0.3162 µM) of 0.283. For the same cell line, the relative viability (AT-7519 + Pictilisib; first compound 1 µM) was 0.251, the relative viability (AT-7519 + Olaparib; first compound 0.01 µM) was 0.278 and the relative viability (AT-7519 + Olaparib; first compound 0.03162 µM) was 0.247. For the same cell line, the relative viability (AT-7519 + Olaparib; first compound 0.3162 µM) was 0.228, the relative viability (AT-7519 + Olaparib; first compound 1 µM) was 0.229 and the relative viability ([1]; first compound 0.08 µM) was 0.582. For the same cell line, the relative viability ([1]; first compound 0.253 µM) was 0.502, the relative viability ([1]; first compound 0.8 µM) was 0.505 and the relative viability ([1]; first compound 2.53 µM) was 0.548. The relative viability ([1]; first compound 8 µM) was 0.646, the relative viability ([2]; first compound 0.08 µM) was 0.234 and the relative viability ([2]; first compound 0.253 µM) was 0.35. The relative viability ([2]; first compound 0.8 µM) was 0.216, the relative viability ([2]; first compound 2.53 µM) was 0.228 and the relative viability ([2]; first compound 8 µM) was 0.27.
